Data on 17 compounds can be found in US20240116985A1, “STAPLED PEPTIDES AND METHODS THEREOF” (priority 2020, published 2024).

Broadly, the chromatographic logD is a lipophilicity value derived from retention on a column. Read a high chromatographic logD as a more lipophilic compound. As a reminder, the logD is lipophilicity at a set pH, counting ionised and neutral species. Lower therefore signals lower lipophilicity.

The data set in a line: CHI Log D procedure. In kind it is physicochemical.

As for `CC(=O)N1CCC[C@]12CC=CCCCC1(CCCC=CCCCCCC[C@@](C)(C(=O)N[C@@H](Cc3ccccc3)C(=O)N[C@@H](Cc3c[nH]c4ccccc34)C(=O)N[C@@H](CCC(N)=O)C(N)=O)NC(=O)[C@H](C(C)C)NC(=O)[C@H](Cc3ccccc3)NC(=O)[C@H](C)NC(=O)[C@H](C)NC(=O)[C@H](CC(=O)O)NC(=O)[C@H](CCC(=O)O)NC1=O)NC(=O)[C@H](C)NC(=O)[C@H](CC(=O)O)NC2=O` (stereo partly drawn) [I-281, Ac-PL3-Asp-Ala-B5-Glu-Asp-Ala-Ala-Phe-Val-S8-Phe-Trp-Gln-NH2], the “CHI Log D” value (pH 7.4) is on record as 2.2.
`CC(=O)N1CCC[C@]12CC=CCCCC1(CCCC=CCCCCCC[C@@](C)(C(=O)N[C@@H](Cc3ccccc3)C(=O)N[C@@H](Cc3c[nH]c4ccccc34)C(=O)N[C@@H](CCC(N)=O)C(N)=O)NC(=O)[C@H](C(C)C)NC(=O)[C@H](Cc3ccccc3)NC(=O)[C@H](C)NC(=O)[C@H](C)NC(=O)[C@H](CC(=O)O)NC(=O)[C@H](CCC(=O)O)NC1=O)NC(=O)[C@H](C)NC(=O)[C@H](CC(=O)O)NC2=O` (stereo partly drawn) [I-282, Ac-PL3-Asp-Ala-B5-Glu-Asp-Ala-Ala-Phe-Val-S8-Phe-Trp-Gln-NH2]: for the setting “pH 7.4”, the “CHI Log D” value turned out to be 2.224.
In the case of `CC(=O)N1CCC[C@]12CC=CCCCC1(CCCC=CCCCCCC[C@@](C)(C(=O)N[C@@H](Cc3ccccc3)C(=O)N[C@@H](Cc3csc4ccccc34)C(=O)N[C@@H](CCC(N)=O)C(N)=O)NC(=O)[C@H](C(C)C)NC(=O)[C@H](Cc3ccccc3)NC(=O)[C@H](C)NC(=O)[C@H](C)NC(=O)[C@H](Cc3ccc4ccccc4n3)NC(=O)[C@H](CC(=O)O)NC1=O)NC(=O)[C@H](C)NC(=O)[C@H](CC(=O)O)NC2=O` (stereo partly drawn) [I-300, Ac-PL3-Asp-Ala-B5-Asp-Qui-Ala-Ala-Phe-Val-S8-Phe-BztA-Gln-NH2], the chromatographic logD (pH 7.4, CHI Log D) amounted to 2.82.
In the case of `CC(=O)N1CCC[C@]12CC=CCCCC1(CCCC=CCCCCCC[C@@](C)(C(=O)N[C@@H](Cc3ccccc3)C(=O)N[C@@H](Cc3csc4ccccc34)C(=O)N[C@@H](CCC(N)=O)C(N)=O)NC(=O)[C@H](C(C)C)NC(=O)[C@H](Cc3ccccc3)NC(=O)[C@H](C)NC(=O)[C@H](C)NC(=O)[C@H](CCc3ccccc3)NC(=O)[C@H](CC(=O)O)NC1=O)NC(=O)[C@H](C)NC(=O)[C@H](CC(=O)O)NC2=O` (stereo partly drawn) [I-301, Ac-PL3-Asp-Ala-B5-Asp-hPhe-Ala-Ala-Phe-Val-S8-Phe-BztA-Gln-NH2], the chromatographic logD (pH 7.4, CHI Log D) turned out to be 3.26.
Still for that read-out and setting: under `CC(=O)N1CCC[C@]12CC=CCCCC1(CCCC=CCCCCCC[C@@](C)(C(=O)N[C@@H](Cc3c(F)c(F)c(F)c(F)c3F)C(=O)N[C@@H](Cc3csc4ccccc34)C(=O)N[C@@H](CCC(N)=O)C(N)=O)NC(=O)[C@H](C(C)C)NC(=O)[C@H](Cc3ccccc3)NC(=O)[C@H](C)NC(=O)[C@H](C)NC(=O)[C@H](CC(=O)O)NC(=O)[C@H](CC(=O)O)NC1=O)NC(=O)[C@H](C)NC(=O)[C@H](CC(=O)O)NC2=O` (stereo partly drawn) [I-302, Ac-PL3-Asp-Ala-B5-Asp-Asp-Ala-Ala-Phe-Val-S8-pff-BztA-Gln-NH2] stands 2.38; under `CC(=O)N1CCC[C@]12CC=CCCCC1(CCCC=CCCCCCC[C@@](C)(C(=O)N[C@@H](Cc3ccccc3)C(=O)N[C@@H](Cc3c[nH]c4ccccc34)C(=O)N[C@@H](CCC(N)=O)C(N)=O)NC(=O)[C@H](C(C)C)NC(=O)[C@H](Cc3ccccc3)NC(=O)[C@H](C)NC(=O)[C@H](C)NC(=O)[C@H](C(c3ccccc3)c3ccccc3)NC(=O)[C@H](CC(=O)O)NC1=O)NC(=O)[C@H](C)NC(=O)[C@H](CC(=O)O)NC2=O` (stereo partly drawn) [I-303, Ac-PL3-Asp-Ala-B5-Asp-DipA-Ala-Ala-Phe-Val-S8-Phe-Trp-Gln-NH2], 3.13.
Turning to `CC(=O)N1CCC[C@]12CC=CCCCC1(CCCC=CCCCCCC[C@@](C)(C(=O)N[C@@H](Cc3ccccc3)C(=O)N[C@@H](Cc3c[nH]c4ccccc34)C(=O)N[C@@H](CCC(N)=O)C(N)=O)NC(=O)[C@H](C(C)C)NC(=O)[C@H](Cc3ccccc3)NC(=O)[C@H](C)NC(=O)[C@H](C)NC(=O)[C@H](Cc3c[nH]cn3)NC(=O)[C@H](CC(=O)O)NC1=O)NC(=O)[C@H](C)NC(=O)[C@H](CC(=O)O)NC2=O` (stereo partly drawn) [I-304, Ac-PL3-Asp-Ala-B5-Asp-His-Ala-Ala-Phe-Val-S8-Phe-Trp-Gln-NH2], the “CHI Log D” value (pH 7.4) stood at 2.339.
The same measure, in the same setting: the result for `CC(=O)N1CCC[C@]12CC=CCCCC1(CCCC=CCCCCCC[C@@](C)(C(=O)N[C@@H](Cc3ccccc3)C(=O)N[C@@H](Cc3c[nH]c4ccccc34)C(=O)N[C@@H](CCC(N)=O)C(N)=O)NC(=O)[C@H](C(C)C)NC(=O)[C@H](Cc3cccc(Cl)c3)NC(=O)[C@H](C)NC(=O)[C@H](C)NC(=O)[C@H](CC(=O)O)NC(=O)[C@H](CC(=O)O)NC1=O)NC(=O)[C@H](C)NC(=O)[C@H](CC(=O)O)NC2=O` (stereo partly drawn) [I-306, Ac-PL3-Asp-Ala-B5-Asp-Asp-Ala-Ala-3C1F-Val-S8-Phe-Trp-Gln-NH2] reads 2.03; that for `CC(=O)N1CCC[C@]12CC=CCCCC1(CCCC=CCCCCCC[C@@](C)(C(=O)N[C@@H](Cc3ccccc3)C(=O)N[C@@H](Cc3c[nH]c4ccccc34)C(=O)N[C@@H](CCC(N)=O)C(N)=O)NC(=O)[C@H](C(C)C)NC(=O)[C@H](Cc3ccc(Cl)cc3)NC(=O)[C@H](C)NC(=O)[C@H](C)NC(=O)[C@H](CC(=O)O)NC(=O)[C@H](CC(=O)O)NC1=O)NC(=O)[C@H](C)NC(=O)[C@H](CC(=O)O)NC2=O` (stereo partly drawn) [I-308, Ac-PL3-Asp-Ala-B5-Asp-Asp-Ala-Ala-4C1F-Val-S8-Phe-Trp-Gln-NH2], 2.03.
In turn, `CC(=O)N1CCC[C@]12CC=CCCCC1(CCCC=CCCCCCC[C@@](C)(C(=O)N[C@@H](Cc3ccccc3)C(=O)N[C@@H](Cc3c[nH]c4ccccc34)C(=O)N[C@@H](CO)C(N)=O)NC(=O)[C@H](CO)NC(=O)[C@H](Cc3ccccc3)NC(=O)[C@H](C)NC(=O)[C@H](C)NC(=O)[C@H](CC(=O)O)NC(=O)[C@H](CC(=O)O)NC1=O)NC(=O)[C@H](C)NC(=O)[C@H](CC(=O)O)NC2=O` (stereo partly drawn) [I-333, Ac-PL3-Asp-Ala-B5-Asp-Asp-Ala-Ala-Phe-Ser-S8-Phe-WCHO-Ser-NH2] yielded a logD (pH 7.4, CHI Log D) of 2.12.
`CC[C@H](C)[C@@H]1NC(=O)[C@H](CC(=O)O)NC(=O)[C@]2(CC=CCCCC3(CCCC=CCCCCCC[C@@](C)(C(=O)N[C@@H](Cc4ccccc4)C(=O)N[C@@H](Cc4csc5ccccc45)C(=O)N[C@@H](CCC(N)=O)C(N)=O)NC(=O)[C@H](CCC(N)=O)NC(=O)[C@H](Cc4ccccc4)NC(=O)[C@H](C)NC(=O)[C@H](C)NC(=O)[C@H](CCC(=O)O)NC(=O)[C@H](CNS(=O)(=O)C(F)(F)F)NC3=O)NC1=O)CCCN2C(C)=O` (stereo partly drawn) [I-630, Ac-PL3-Asp-Ile-B5-[Tf]Dap-Glu-Ala-Ala-Phe-Gln-S8-Phe-BztA-Gln-NH2]: the “CHI Log D” value (pH 7.4) turned out to be 4.36.
The same measure, in the same setting: under `CC[C@H](C)[C@@H]1NC(=O)[C@H](CC(=O)O)NC(=O)[C@]2(CC=CCCCC3(CCCC=CCCCCCC[C@@](C)(C(=O)N[C@@H](Cc4ccccc4)C(=O)N[C@@H](Cc4csc5ccccc45)C(=O)N[C@@H](CCC(N)=O)C(N)=O)NC(=O)[C@H](CCC(N)=O)NC(=O)[C@H](Cc4ccccc4)NC(=O)[C@H](C)NC(=O)[C@H](C)NC(=O)[C@H](CCC(=O)O)NC(=O)[C@H](CNS(=O)(=O)C(F)(F)F)NC3=O)NC1=O)CCCN2C(C)=O` (stereo partly drawn) [I-631, Ac-PL3-Asp-Ile-B5-[Tf]Dap-Glu-Ala-Ala-Phe-Gln-S8-Phe-BztA-Gln-NH2] stands 4.365.
Regarding `CC[C@H](C)[C@@H]1NC(=O)C[C@H](CC(=O)O)NC(=O)[C@]2(CC=CCCCC3(CCCC=CCCCCCC[C@@](C)(C(=O)N[C@@H](Cc4ccccc4)C(=O)N[C@@H](Cc4csc5ccccc45)C(=O)N[C@@H](CCC(N)=O)C(N)=O)NC(=O)[C@H](CCC(N)=O)NC(=O)[C@H](Cc4ccccc4)NC(=O)[C@H](C)NC(=O)[C@H](C)NC(=O)[C@H](CCC(=O)O)NC(=O)[C@H](CC(=O)O)NC3=O)NC1=O)CCCN2C(C)=O` (stereo partly drawn) [I-670, Ac-PL3-RbGlu-Ile-B5-Asp-Glu-Ala-Ala-Phe-Gln-S8-Phe-BztA-Gln-NH2], the “CHI Log D” value (pH 7.4) came out at 2.16.
`CC(=O)N1CCC[C@]12CC=CCCCC1(CCCC=CCCCOC(=O)N3CC[C@@](C(=O)N[C@@H](Cc4ccsc4)C(=O)N[C@@H](Cc4csc5ccccc45)C(=O)N[C@@H](CCC(N)=O)C(N)=O)(C3)NC(=O)[C@H](CC(N)=O)NC(=O)[C@H](Cc3ccccc3)NC(=O)[C@H](C)NC(=O)[C@H](C)NC(=O)[C@H](CC(=O)O)NC(=O)[C@H](CC(=O)O)NC1=O)NC(=O)[C@H](CC(C)(C)C)NC(=O)[C@H](CC(=O)O)NC2=O` (stereo partly drawn) [I-687, Ac-PL3-Asp-Npg-B5-Asp-Asp-Ala-Ala-Phe-Asn-PyrS2-3Thi-BztA-Gln-NH2]: for the setting “pH 7.4”, the “CHI Log D” value is listed as 2.035 and the logD stood at 2.0.
Consider `CC(=O)N1CCC[C@]12CC=CCCCC1(CCCC=CCCCCCC[C@@](C)(C(=O)N[C@@H](Cc3ccccc3)C(=O)N[C@@H](Cc3csc4ccccc34)C(=O)N(C)[C@@H](Cc3cnc[nH]3)C(N)=O)NC(=O)[C@H](CC(N)=O)NC(=O)[C@H](Cc3ccccc3)NC(=O)[C@H](C)NC(=O)[C@H](C)NC(=O)[C@H](CCC(=O)O)NC(=O)[C@H](CC(=O)O)NC1=O)NC(=O)[C@H](CC(C)C)NC(=O)[C@H](CC(=O)O)NC2=O` (stereo partly drawn) [I-746, Ac-PL3-Asp-Leu-B5-Asp-Glu-Ala-Ala-Phe-Asn-S8-Phe-BztA-NMeHis-NH2], for which the “CHI Log D” value (pH 7.4) is 2.372.
For the compound `CC(=O)N1CCC[C@]12CC=CCCCC1(CCCC=CCCCCCC[C@@](C)(C(=O)N[C@@H](Cc3ccsc3)C(=O)N[C@@H](Cc3csc4ccccc34)C(=O)N[C@@H](CCC(N)=O)C(=O)N[C@H](C)C(=O)N[C@@H](C)C(=O)N[C@@H](C)C(N)=O)NC(=O)[C@H](CC(N)=O)NC(=O)[C@H](Cc3ccccc3)NC(=O)[C@H](C)NC(=O)[C@H](C)NC(=O)[C@H](CC(=O)O)NC(=O)[C@H](CC(=O)O)NC1=O)NC(=O)[C@H](CC(C)(C)C)NC(=O)[C@H](CC(=O)O)NC2=O` (stereo partly drawn) [I-875, Ac-PL3-Asp-Npg-B5-Asp-Asp-Ala-Ala-Phe-Asn-S8-3Thi-BztA-Gln-dAla-Ala], the pH-dependent lipophilicity (logD) (pH 7.4, CHI Log D) was found to be 2.21.
On to `COCCOCCC(=O)NCCCC[C@@H]1NC(=O)[C@H](C)NC(=O)[C@H](CC(=O)O)NC(=O)[C@H](CC(=O)O)NC(=O)C2(CCCC=CCCCOC(=O)N3CC[C@@](C(=O)N[C@@H](Cc4ccsc4)C(=O)N[C@@H](Cc4csc5ccccc45)C(=O)N[C@@H](CCC(N)=O)C(N)=O)(C3)NC(=O)[C@H](CC(N)=O)NC(=O)[C@H](Cc3ccccc3)NC1=O)CCCC=CC[C@]1(CCCN1C(C)=O)C(=O)N[C@@H](CC(=O)O)C(=O)N[C@@H](CC(C)(C)C)C(=O)N2` (stereo partly drawn) [I-893, Ac-PL3-Asp-Npg-B5-Asp-Asp-Ala-[mPEG2]Lys-Phe-Asn-PyrS2-3Thi-BztA-Gln-NH2], for which the “CHI Log D” value (pH 7.4) is 1.759.
